Source: ChEMBL document CHEMBL5042540, “Discovery of Pteridine-7(8H)-one Derivatives as Potent and Selective Inhibitors of Bruton's Tyrosine Kinase (BTK)” (J Med Chem, 2022)

How the values were obtained:
in vivo [1] = settings: Sprague-Dawley, rat, iv, 1 mg/kg
in vivo [2] = settings: Sprague-Dawley, rat, po, 10 mg/kg
in vivo [3] = settings: Sprague-Dawley, rat, iv, 1 mg/kg; remark: listed apart in the source
in vivo [4] = settings: Sprague-Dawley, rat, iv, 1 mg/kg; remark: listed apart in the source
in vivo [5] = settings: Sprague-Dawley, rat, po, 10 mg/kg; remark: listed apart in the source
in vivo [6] = settings: Sprague-Dawley, rat, iv, 1 mg/kg; remark: listed apart in the source

## C=CC(=O)Nc1cccc(-n2c(=O)c(C3CCCCC3)nc3cnc(Nc4cccc(OCCOC)c4)nc32)c1
In vivo [1]
  clearance: 58.2 mL/min/kg
In vivo [2]
  AUC(0-t): 66.9 ng·h/mL
In vivo [3]
  Vd: 1.16 L/kg
In vivo [4]
  half-life: 26.4 min
In vivo [5]
  bioavailability: 2.31%
In vivo [6]
  AUC(0-t): 290 ng·h/mL
